Values of other authors in patent US20140221490A1, “METHODS OF TREATING PAIN” (Hospira, Inc., priority 2011, published 2014).
Like-named read-outs stand apart in the source and are kept apart here.

Settings: cited from earlier work; for Prot. bind., drug fraction bound to protein (fP): plasma; for K1:1, stability constant of 1:1 inclusion complex with HPβCD: literature reference; for Cmax: read-out: Cmax, maximum drug concentration in plasma, based on the drug's pharmacokinetics and administration of a normal drug dose

SMILES | Prot. bind., drug fraction bound to protein (fP) | Vd, volume of distribution | K1:1, stability constant of 1:1 inclusion complex with HPβCD | Cmax | K1:1, stability constant of 1:1 inclusion complex with HPβCD (listed as telmisartan) | K1:1, stability constant of 1:1 inclusion complex with HPβCD (listed as fenofibrate)
C[C@]12CC[C@H]3[C@@H](CCC4=CC(=O)CC[C@@]43C)[C@@H]1CC[C@@H]2O [Testosterone] | 98% | – | – | – | – | –
CCNC(=O)CCC/C=C\C[C@@H]1[C@@H](/C=C/[C@@H](O)CCc2ccccc2)[C@H](O)C[C@@H]1O [Bimatoprost] | 88% | 0.67 L/kg | 1,900^i M^−1 | 0.00019 µM | – | –
CCCc1nc2c(C)cc(-c3nc4ccccc4n3C)cc2n1Cc1ccc(-c2ccccc2C(=O)O)cc1 [Telmisartan] | 99% | 7 L/kg | 40,000^47 M^−1 | 2.8 µM | 40,000 M^−1 | –
CC(C)OC(=O)C(C)(C)Oc1ccc(C(=O)c2ccc(Cl)cc2)cc1 [Fenofibrate] | 99% | 0.9 L/kg | 2^24 M^−1 | 28 µM | – | 2 M⁻¹
Cc1ccc(-c2cc(C(F)(F)F)nn2-c2ccc(S(N)(=O)=O)cc2)cc1 [Celecoxib] | 97% | 6.5 L/kg | 630^10 M^−1 | 1.9 µM | – | –
CCC1=C(C)CN(C(=O)NCCc2ccc(S(=O)(=O)NC(=O)N[C@H]3CC[C@H](C)CC3)cc2)C1=O [Glimepride] | 99.5% | – | – | – | – | –
NC(=O)N1c2ccccc2C=Cc2ccccc21 [Carbamazepine] | 75% | 1.4 L/kg | 630^6 M^−1 | 34 µM | – | –
CCCCN1CCCCC1C(=O)Nc1c(C)cccc1C (centres unmarked) [Bupivacaine] | 95% | 1.0 L/kg | 13^5 M^−1 | 6.9 µM | – | –
CCCc1nn(C)c2c(=O)[nH]c(-c3cc(S(=O)(=O)N4CCN(C)CC4)ccc3OCC)nc12 [Sildenafil] | 96% | 1.5 L/kg | – | 0.93 µM | – | –
O=C1[C@H](CC[C@H](O)c2ccc(F)cc2)[C@@H](c2ccc(O)cc2)N1c1ccc(F)cc1 [Ezetimibe] | 90% | 1.5 L/kg | 1,300^23 M^−1 | 0.012 µM | – | –
O=C(O)CCc1nc(-c2ccccc2)c(-c2ccccc2)o1 [Oxaprozin] | 99% | 0.15 L/kg | – | 780 µM | – | –
CC(=O)O[C@]1(C(C)=O)CC[C@H]2[C@@H]3C[C@H](C)C4=CC(=O)CC[C@]4(C)[C@H]3CC[C@@]21C [Medroxyprogesterone acetate] | 90% | – | 260^33 M^−1 | 1.8 µM | – | –
COC(=O)C1=C(C)NC(C)=C(C(=O)OCCN(C)Cc2ccccc2)C1c1cccc([N+](=O)[O-])c1 (centres unmarked) [Nicardipine] | – | 8.3 L/kg | – | 0.53 µM | – | –
CC(C(=O)O)c1cccc(C(=O)c2ccccc2)c1 (centres unmarked) [Ketoprofen] | – | 0.15 L/kg | – | – | – | –
CC(C)c1cccc(C(C)C)c1O [Propofol] | 99% | – | – | – | – | –
C[C@H]1C[C@H]2[C@@H]3CCC4=CC(=O)C=C[C@]4(C)[C@@]3(F)[C@@H](O)C[C@]2(C)[C@@]1(O)C(=O)CO [Cilest (betamethasone), betamethasone] | 64% | – | 3,000^16 M^−1 | 0.29 µM | – | –
O=C(CCCN1CCC(O)(c2ccc(Cl)cc2)CC1)c1ccc(F)cc1 [Haloperidol] | 92% | 18 L/kg | – | 0.088 µM | – | –
CC(C)Cc1ccc(C(C)C(=O)O)cc1 (centres unmarked) [Ibuprofen] | – | – | 5,000^31 M^−1 | 280 µM | – | –

SMILES | Prot. bind., drug fraction bound to protein (fP) | Vd, volume of distribution | K1:1, stability constant of 1:1 inclusion complex with HPβCD | Cmax | K1:1, stability constant of 1:1 inclusion complex with HPβCD (listed as telmisartan) | K1:1, stability constant of 1:1 inclusion complex with HPβCD (listed as fenofibrate)
Clc1ccc(COC(Cn2ccnc2)c2ccc(Cl)cc2Cl)c(Cl)c1 (centres unmarked) [Miconazole] | 92% | 20 L/kg | – | 0.029 µM | – | –
C=CC1=C(C(=O)O)N2C(=O)[C@@H](NC(=O)/C(=N\OCC(=O)O)c3csc(N)n3)[C@H]2SC1 [Cefixime] | – | 1.0 L/kg | 1,400^9 M^−1 | 360 µM | – | –
Clc1ccc(COC(Cn2ccnc2)c2ccc(Cl)cc2Cl)cc1 (centres unmarked) [Econazole nitrate] | (96) % | – | 13^20 M^−1 | 5.5 µM | – | –
Nc1nc2c(ncn2COCCO)c(=O)[nH]1 [Acyclovir] | – | – | 770^2 M^−1 | 7.2 µM | – | –
CC1(C)S[C@@H]2[C@H](NC(=O)[C@H](N)c3ccc(O)cc3)C(=O)N2[C@H]1C(=O)O [Amoxicillin] | 20% | 0.3 L/kg | – | 65 µM | – | –
C=CC1=C(C(=O)O)N2C(=O)[C@@H](NC(=O)/C(=N\O)c3csc(N)n3)[C@H]2SC1 [Cefdinir] | 70% | 0.35 L/kg | 59^8 M^−1 | 7.3 µM | – | –
COc1ccccc1OCCNCC(O)COc1cccc2[nH]c3ccccc3c12 (centres unmarked) [Carvedilol] | 98% | 1.7 L/kg | 580^7 M^−1 | 400 µM | – | –
COc1ccc2cc(CCC(C)=O)ccc2c1 [Nabumetone] | 99% | 0.2 L/kg | 3,000^35 M^−1 | 160 µM | – | –
C[C@]12CC[C@@H]3c4ccc(O)cc4CC[C@H]3[C@@H]1CC[C@@H]2O [Estradiol] | 97% | 1 L/kg | 2,000^22 M^−1 | 0.00053 µM | – | –
Cc1ncc2n1-c1ccc(Cl)cc1C(c1ccccc1F)=NC2 [Midazolam] | 97% | – | – | – | – | –
CC(=O)Nc1ccc(O)cc1 [Acetaminophen] | 20% | 0.95 L/kg | – | 50 µM | – | –
CC(C(=O)O)c1ccc(-c2ccccc2)c(F)c1 (centres unmarked) [Flurbiprofen] | 99% | 0.12 L/kg | 7,500^26 M^−1 | 62 µM | – | –
CNCCC(Oc1ccc(C(F)(F)F)cc1)c1ccccc1 (centres unmarked) [Fluoxetine] | 95% | 27 L/kg | – | 0.18 µM | – | –
COc1ccnc(C[S+]([O-])c2nc3ccc(OC(F)F)cc3[nH]2)c1OC (centres unmarked) [Pantoprazole] | 98% | 0.15 L/kg | 420^41 M^−1 | 6.5 µM | – | –
CN1CC(=O)N2[C@H](c3ccc4c(c3)OCO4)c3[nH]c4ccccc4c3C[C@@H]2C1=O [Tadalafil] | 94% | 0.9 L/kg | 360^46 M^−1 | 1.3 µM | – | –
Cc1nccn1CC1CCc2c(c3ccccc3n2C)C1=O (centres unmarked) [Ondansetron] | 75% | 1.7 L/kg | 180^39 M^−1 | 0.9 µM | – | –
COc1ccc2[nH]c([S+]([O-])Cc3ncc(C)c(OC)c3C)nc2c1 (centres unmarked) [Omeprazole] | 96% | 0.35 L/kg | 70^38 M^−1 | 4.1 µM | – | –
C[C@]12C=CC(=O)C=C1CC[C@@H]1[C@@H]2[C@@H](O)C[C@@]2(C)[C@H]1CC[C@]2(O)C(=O)CO [Prednisolone] | 90% | 1.5 L/kg | 2,400^42 M^−1 | 1.3 µM | – | –
CNC1=Nc2ccc(Cl)cc2C(c2ccccc2)=[N+]([O-])C1 [Chlordiazepoxide] | 96% | – | – | – | – | –
